Data reported in ChEMBL document CHEMBL5137032, “Design, synthesis of DNA-interactive 4-thiazolidinone-based indolo-/pyrroloazepinone conjugates as potential cytotoxic and topoisomerase I inhibitors” (Eur J Med Chem, 2022).

Columns and labels:
Assay type in all cases: functional, cell-based
A549 = assay: Cytotoxicity against human A549 cells assessed as cell growth inhibition incubated for 48 hrs by MTT assay; details: A549, 48 h
HCT-116 = assay: Cytotoxicity against human HCT-116 cells assessed as cell growth inhibition incubated for 48 hrs by MTT assay; details: HCT-116, 48 h
SK-MEL-28 = assay: Cytotoxicity against human SK-MEL-28 cells assessed as cell growth inhibition incubated for 48 hrs by MTT assay; details: SK-MEL-28, 48 h
HT-29 = assay: Cytotoxicity against human HT-29 cells assessed as cell growth inhibition incubated for 48 hrs by MTT assay; details: HT-29, 48 h
MCF7 = assay: Cytotoxicity against human MCF7 cells assessed as cell growth inhibition incubated for 48 hrs by MTT assay; details: MCF7, 48 h

| SMILES | IC50 (A549) [µM] | IC50 (HCT-116) [µM] | IC50 (SK-MEL-28) [µM] | IC50 (HT-29) [µM] | IC50 (MCF7) [µM] |
| --- | --- | --- | --- | --- | --- |
| O=C1N/C(=N\Cc2ccc3c(c2)OCO3)S/C1=C1/CCNC(=O)c2[nH]c3ccccc3c21 | > 50 | 21.4 | > 50 | 36.5 | 31.4 |
| COc1cccc2c1C(=O)c1c(O)c3c(c(O)c1C2=O)C[C@@](O)(C(=O)CO)C[C@@H]3O[C@H]1C[C@H](N)[C@H](O)[C@H](C)O1 [DOXORUBICIN] |  | 7.41 | 1.64 |  |  |
| COc1ccc(C/N=C2\NC(=O)/C(=C3\CCNC(=O)c4[nH]ccc43)S2)cc1 | 18.3 | 19.4 | 12.1 | 11.5 | 6.24 |
| O=C1N/C(=N\Cc2ccccc2)S/C1=C1/CCNC(=O)c2[nH]ccc21 | 26.9 | 49.7 | 38.4 | 36.5 | 31.1 |
| O=C1N/C(=N\Cc2ccc3c(c2)OCO3)S/C1=C1/CCNC(=O)c2[nH]ccc21 | 19.9 | 4.25 | 11.2 | 16.5 | 4.31 |
| O=C1N/C(=N\Cc2ccc(Cl)cc2)S/C1=C1/CCNC(=O)c2[nH]c3ccccc3c21 | 33.6 | 22.7 | > 50 | 39.9 | 46.8 |
| COc1ccc(C/N=C2\NC(=O)/C(=C3\CCNC(=O)c4[nH]c5ccccc5c43)S2)cc1 | 3.73 | 17.5 | 9.68 | 12.3 | 6.33 |
| O=C1N/C(=N\Cc2ccc(Cl)cc2)S/C1=C1/CCNC(=O)c2[nH]ccc21 | > 100 | > 100 | > 100 | > 100 | > 100 |
| Cn1c2c(c3ccccc31)/C(=C1\S/C(=N/Cc3ccccc3)NC1=O)CCNC2=O | > 50 | > 50 | > 50 | > 50 | > 50 |
| O=C1N/C(=N\Cc2ccccc2Cl)S/C1=C1/CCNC(=O)c2[nH]ccc21 | > 100 | > 50 | > 100 | > 100 | 21.2 |
| O=C1N/C(=N\Cc2ccc(C(F)(F)F)cc2)S/C1=C1/CCNC(=O)c2[nH]ccc21 | > 100 | > 100 | > 100 | > 50 | > 100 |
| O=C1N/C(=N\CCc2ccc(F)cc2)S/C1=C1/CCNC(=O)c2[nH]c3ccccc3c21 | > 50 | > 50 | > 50 | > 50 | > 50 |
| COc1ccc(C/N=C2\NC(=O)/C(=C3\CCNC(=O)c4c3ccn4C)S2)cc1 | > 100 | > 100 | > 100 | 32.4 | > 100 |
| CC(C)(C)c1ccc(C/N=C2\NC(=O)/C(=C3\CCNC(=O)c4[nH]ccc43)S2)cc1 | 43.9 | > 100 | 23.5 | 43.4 | 18.9 |
| O=c1[nH]cc(F)c(=O)[nH]1 [FLUOROURACIL] |  |  | 14.6 | 23.9 | 21.1 |
| O=C1N/C(=N\CCc2ccccc2)S/C1=C1/CCNC(=O)c2[nH]ccc21 | 19.5 | 17.8 | 12.3 | 24.9 | 21 |
| COc1ccc(CC/N=C2\NC(=O)/C(=C3\CCNC(=O)c4[nH]c5ccccc5c43)S2)cc1 | 20.5 | 18.6 | 3.49 | 15 | 9.41 |
| COc1ccc(CC/N=C2\NC(=O)/C(=C3\CCNC(=O)c4[nH]ccc43)S2)cc1 | 16 | 10.8 | 7.86 | 8.14 | 6.47 |
| O=C1N/C(=N\Cc2cccc(Cl)c2)S/C1=C1/CCNC(=O)c2[nH]ccc21 | 35.2 |  | 34.6 | 35.3 | 20.7 |
| O=C1N/C(=N\Cc2ccc(F)cc2)S/C1=C1/CCNC(=O)c2[nH]ccc21 | 22.4 | 16.9 | 11.2 | 26 | 43.1 |
